AC26 data for 97 compounds are collected here from PubChem BioAssay AID624491 (Broad Institute, 2012).

Activity calls are given as the source filed them.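 The calls were made as follows: active = fitted curve crossing a set activation limit at or below the highest valid dose tested; inconclusive = flat fit at 30 to 70% activation, or poor fit; inactive = the rest, including signal decreases.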

In the test the test system is D54 ERlucT glycosylation luciferase reporter, luminescence, 24 h. Put plainly: N-linked glycosylation inhibitors, luciferase reporter, dose response, D54 ERlucT cells, luminescence, cherry-picks (AID 624491).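 Also: signal gain reflects blocked N-linked glycosylation of a luciferase reporter; actives raise luciferase signal so AC26 marks activators of the reporter.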

For `COc1cc(C(=O)NCCOc2cc(C)cc(C)c2)cc(OC)c1OC`, the AC26 is 2370 nM.

In the case of `COc1ccc(NC(=O)C2(C)Cc3c(-c4cccc(C(N)=O)c4)ccnc3O2)cn1` (configuration not stated), the AC26 was 10700 nM.

On to `COc1ccccc1OCC(=O)NNC(=O)c1ccoc1C`, for which the AC26 was 722 nM.

`CN(C)CCCN1C(=O)c2cccc3c([N+](=O)[O-])ccc(c23)C1=O`: the AC26 was 169 nM.

Turning to `Nc1cc2c3c(cccc3c1)C(=O)N(CCN1CCCC1)C2=O`, the AC26 was 275 nM.

For `COc1ccc(-n2c(=S)[nH]c3cc(C(=O)Nc4ccc(F)cc4)ccc3c2=O)c(OC)c1`, the AC26 was 4550 nM.

In the case of `CCN1C(=O)CCN(C2CCCC2)c2nc(Nc3ccc(C(=O)NC4CCN(C)CC4)cc3OC)ncc21`, the AC26 is 479 nM.

In the case of `CCNc1oc(/C=C/c2ccc(OCC)cc2)nc1C#N`, the AC26 is > 19500 nM (inactive).

For the compound `Cc1[nH]c2ccccc2c1/C=N/NC(=O)c1cc(-c2ccncc2)nc2ccccc12`, the AC26 was 4040 nM.

With `CC(Nc1nc(-c2cccnc2)nc2ccccc12)c1ccccc1` (configuration not stated), the AC26 is 2830 nM.

Take `CCCC(=O)Nc1nc2ccc(NC(=O)c3c(F)c(F)c(OC)c(F)c3F)cc2s1`: the AC26 is 974 nM.

Take `COc1ccc(OC)c(NS(=O)(=O)c2ccc(SC)cc2)c1`: the AC26 is 7410 nM.

Turning to `O=C(NCc1ccc(F)c(F)c1)C1Cc2c(-c3ccc4c(c3)OCO4)ccnc2O1` (configuration not stated), the AC26 was 2750 nM.

Turning to `CC(=O)Nc1cccc(-c2ccnc3c2CC(C(=O)NCCc2ccccc2)O3)c1` (configuration not stated), the AC26 is 1910 nM.

On to `COc1ccc(-c2nn(C)c(=O)c3ccccc23)cc1NS(C)(=O)=O`, for which the AC26 was 4620 nM.

`COc1cc(OC)c2c(-c3cccc(-c4ccoc4)c3)cc(=O)oc2c1`: the AC26 is 7640 nM.

For the compound `Cc1ccc(CCC(=O)Nc2ncc(Cc3cc(Cl)ccc3Cl)s2)o1`, the AC26 is 476 nM.

Take `Cc1cc(NC(=O)CSc2nc3sc(C)c(C)c3c(=O)n2C2CCCC2)no1`: the AC26 is 4700 nM.

With `CC(Nc1nc(-c2ccccc2O)nc2ccccc12)c1ccccc1` (configuration not stated), the AC26 was 65.6 nM.

Take `Cc1ccc(C)c(Cn2nnc3c(=O)[nH]c(C4CCN(C(=O)c5ccco5)CC4)nc32)c1`: the AC26 is 1110 nM.

As to `O=C(Nc1ncccc1O)c1ccc(C(=O)c2ccccc2)cc1`, the AC26 was 5180 nM.

As for `COc1ccc(C(=O)/C=C/c2ccc(N(C)C)cc2)c(OC)c1`, the AC26 is 11700 nM.

Take `COC(=O)COc1cccc2c(=O)n(CC(=O)NCc3ccccc3)ccc12`: the AC26 was 1250 nM.

`Cc1ccc2c(c1)C(=O)N1[C@H]3c4cc(C)ccc4OC[C@@H]3[C@H](c3ccccc3)[C@]1(C)C(=O)N2`: the AC26 was 26.4 nM.

For the compound `Cn1c(=O)n(C)c2cc(NS(=O)(=O)c3ccc(F)cc3)ccc21`, the AC26 was 5290 nM.

In the case of `CC[C@H](C)[C@@H](NC(=O)O[C@@H]1C(=O)c2cc(OC)ccc2O[C@H]1c1ccc(OC)c(Br)c1)C(=O)OC`, the AC26 is 335 nM.

With `COc1ccc(Nc2c3ccccc3nc3ccccc23)cc1`, the AC26 was 1020 nM.

`N#Cc1c(NCCN)nc(-c2ccco2)c2c1CCCC2`: the AC26 was 1730 nM.

In the case of `COc1ccccc1NC1=NC(c2ccc(Cl)cc2)N=C(N)N1` (configuration not stated), the AC26 was 1370 nM.

Regarding `O=C(NC1CCCCC1)c1ccc([N+](=O)[O-])o1`, the AC26 was 852 nM.

Turning to `O=c1cc(-c2ccccc2)[nH]c2cc(F)ccc12`, the AC26 was 327 nM.

With `Cc1cccc(C)c1OCCNC(=O)C(=O)NCc1ccco1`, the AC26 is 1710 nM.

In the case of `O=C(COC(=O)c1cccc(Br)c1)Nc1cccc2c1C(=O)c1ccccc1C2=O`, the AC26 was 4290 nM.

Turning to `CCn1c(=O)c2cc(C(=O)NCCCOC)sc2c2ccccc21`, the AC26 is 2460 nM.

Take `CC(C)(C)n1nnnc1C(c1ccccc1)N1CCc2ccccc2C1` (configuration not stated): the AC26 was 13900 nM.

`CCOc1ccc(/C=C2\SC(N3CCCCC3)=NC2=O)cc1`: the AC26 is 1100 nM.

Regarding `COc1ccc2sc3cccc(NCCN(C)C)c3c(=O)c2c1`, the AC26 is 4530 nM.

In the case of `Cc1cc(N2CCCCC2)nc(NCc2ccccc2)n1`, the AC26 is > 19500 nM (inactive).

Regarding `COc1ccc(CNC(=O)c2cccc3c(-c4cnn(C)c4)coc23)cc1OC`, the AC26 is 3960 nM.

Turning to `CCN(CC)CCn1c2ccccc2c2nc3ccccc3nc21`, the AC26 is 1950 nM.

As to `CC(=O)c1cccc(NC(=O)CSc2ncc(C(=O)Nc3ccccc3)c(=O)n2C)c1`, the AC26 was 1350 nM.

On to `COc1cc2c(C#N)c(N3CCc4ccccc4C3)nc(N)c2c(N)n1`, for which the AC26 was 6220 nM.

For `Clc1cccc(N2Cc3cc(-c4ccccc4)ccc3-n3nncc3C2)c1`, the AC26 is 3580 nM.

`COc1ccccc1NC(=O)c1cnc(SCC(=O)NCC2CCCO2)n(C)c1=O` (configuration not stated): the AC26 was 1970 nM.

In the case of `O=C(N/N=C\c1cn(-c2ccccc2)nc1-c1ccccc1)c1ccc(Br)o1`, the AC26 is 9570 nM.

Take `CCOc1nc(N=C(N)N)nc2c(C)cccc12`: the AC26 was 2480 nM.

Consider `COc1ccc(-c2nc3c(s2)CCc2onc(-c4ccc(OC)cc4)c2-3)cc1`, for which the AC26 is 14400 nM.

`CCOC(=O)c1ccc(Oc2cc(C)nc(SC)n2)cc1`: the AC26 is 1720 nM.

For `COc1ccc(NC(=O)C(=O)NCCC2CCCCN2S(=O)(=O)c2ccccc2)cc1` (configuration not stated), the AC26 was 5680 nM.

As to `COc1ccc(-c2cc(C(F)F)n3ncc(C(=O)N4CCc5ccccc54)c3n2)cc1`, the AC26 is 2500 nM.

Turning to `NC(=O)CC(NC(=O)Cc1ccc(Cl)cc1)c1ccc(NC2CCN(Cc3ccccc3)CC2)c([N+](=O)[O-])c1` (configuration not stated), the AC26 is 480 nM.

On to `O=C(Cc1ccc(-c2ccccc2)cc1)NCc1cccnc1`, for which the AC26 is 12400 nM.

As for `CC1(C)Cc2c(c(N3CCOCC3)nc3snc(N)c23)CO1`, the AC26 is 502 nM.

Regarding `COc1ccc(CCn2c(=N)c(C(=O)NCc3ccco3)cc3c(=O)n4ccccc4nc32)cc1`, the AC26 is 2810 nM.

As to `COC(=O)C1=C(c2cc3ccccc3s2)C[C@@H]2CC[C@H]1N2C(=O)N1CCOCC1`, the AC26 is 13600 nM.

As to `Cc1cccc(NC(=O)Nc2cccc(C#N)c2)n1`, the AC26 is 4060 nM.

Turning to `COc1ccc(/C=N\NC(=O)c2ccccc2F)cc1COc1ccc(F)cc1F`, the AC26 was 3550 nM.

Regarding `COc1ccc(C(=O)NCCN(C)C)c2nc3ccccc3cc12`, the AC26 was 128 nM.

Regarding `COc1ccc(/C=N/NC(=O)c2ccccc2OCc2ccccc2)c(OC)c1`, the AC26 is 1400 nM.

Turning to `COc1ccc(C2=NOC(C(=O)NCc3ccc(F)cc3)C2)cc1OC` (configuration not stated), the AC26 was 4460 nM.

In the case of `CNc1ncnc(Sc2ccc(Cl)cc2)c1[N+](=O)[O-]`, the AC26 is 4540 nM.

In the case of `CCOC(=O)c1[nH]c(C)c(C(=O)Nc2cc(OC)ccc2OC)c1C`, the AC26 was 322 nM.

Turning to `CC(=O)Nc1cccc(-c2ccnc3c2CC(C)(C(=O)NCc2cccs2)O3)c1` (configuration not stated), the AC26 was 1450 nM.

Turning to `CC(=O)/C=C/c1ccccc1Oc1c(F)c(F)nc(F)c1F`, the AC26 was 183 nM.

For `COc1cc(OC)c2nc(C)c3c(c2c1)N(c1ccc(O)cc1)CC3`, the AC26 was 1190 nM.

Turning to `CC(=O)N1CCc2c(sc(NC(=O)c3ccc4c(c3)OCCO4)c2C#N)C1`, the AC26 is 1950 nM.

Turning to `CC(=O)Nc1sc(C)c(C)c1C(=O)OCC(=O)N(CC(C)C)c1c(N)n(Cc2ccccc2)c(=O)[nH]c1=O`, the AC26 was 4710 nM.

Turning to `COc1ccc([C@@H]2[C@@H]3C(=O)N(C(C)(C)C)C(=O)[C@@H]3[C@]3(Cc4ccccc4)C(=O)N(c4cccc(C)c4)C(=O)N23)cc1`, the AC26 was 1300 nM.

As for `COc1cc(OC)c(C2=NOC(C(=O)NCc3cccs3)C2)cc1Cl` (configuration not stated), the AC26 was 5250 nM.

Take `O=C(Cn1ncc(Cl)c(Cl)c1=O)N1CCOCC1`: the AC26 is 1220 nM.

For the compound `CC(C)CCNC(=O)CCCOc1cc(=O)n(C)c2ccccc12`, the AC26 was 4270 nM.

On to `COc1ccc(/C=C2\CC/C(=C\c3ccc(OC)c(OC)c3)C2=O)cc1OC`, for which the AC26 is 3790 nM.

With `COc1ccc(Nc2nc(-c3c(C)nc4ncccn34)cs2)cc1`, the AC26 was 17.2 nM.

In the case of `CCN(CC)c1ccc(/C=N\NC(=O)c2cccc3cc[nH]c23)cc1`, the AC26 is 1860 nM.

With `CC(=O)N1N=C(c2ccc(NS(=O)(=O)c3ccccc3)cc2)CC1c1ccco1` (configuration not stated), the AC26 was 912 nM.

`Cc1c(C(=O)OCC(C)C)[nH]c2c1C(=O)CC(c1cccs1)C2` (configuration not stated): the AC26 is 1170 nM.

With `Nc1c2ccccc2nc2ccccc12`, the AC26 is 364 nM.

`COc1cc(/C=N\NC(=O)c2sc(N)nc2C)cc(OC)c1OC`: the AC26 is 3140 nM.

Regarding `c1ccc(-n2nnnc2-c2cccc3ccccc23)cc1`, the AC26 is 2390 nM.

In the case of `Cc1ccc(-c2nn3c(C)nnc3s2)cc1NCc1c(F)cccc1Cl`, the AC26 is 7650 nM.

On to `Cc1cc(C)c2c(c1)cc(C)c1nnc(SCC(=O)Nc3cc(C)on3)n12`, for which the AC26 was 12000 nM.

As to `CN(C)CCCN1C(=O)c2cccc3cccc(c23)C1=O`, the AC26 is 3880 nM.

For `O=c1[nH]c(CSc2ncnc3sc(-c4ccccc4)cc23)nc2ccccc12`, the AC26 was 4470 nM.

Take `CCc1ccc(N2CC(C(=O)Nc3ccccc3N3CCCC3)CC2=O)cc1` (configuration not stated): the AC26 is 5370 nM.

As to `Cc1noc(C)c1COc1ccc(C(=O)NNC(=O)c2ccccc2F)cc1`, the AC26 is 33.4 nM.

For the compound `CCOc1ccc(NC(=O)C(=O)NCCN2CCN(S(=O)(=O)c3ccc(C)cc3)CC2)cc1`, the AC26 was 4890 nM.

`COc1cc(C2Sc3ccccc3NC3=C2C(=O)OC3)cc(OC)c1OC` (configuration not stated): the AC26 is 12300 nM.

On to `COc1ccc(S(=O)(=O)NCc2ccccn2)cc1NC(=O)c1ccccc1`, for which the AC26 was 234 nM.

Consider `CC1(C)Cc2nc3sc4c(SCC(=O)NCc5ccccc5)ncnc4c3cc2CO1`, for which the AC26 was 160 nM.

For `O=C1[C@@H]2Cc3c([nH]c4ccccc34)C(c3ccc([N+](=O)[O-])cc3)N2C(=O)CN1C1CC1` (some centres not stated), the AC26 is 11500 nM.

For `CCN(CC)S(=O)(=O)c1cccc(C(=O)N/N=C/c2ccc([N+](=O)[O-])o2)c1`, the AC26 is 2340 nM.

For the compound `COc1ccc(NC(=O)C2(C)Cc3c(-c4cccc(C(N)=O)c4)ccnc3O2)cc1` (configuration not stated), the AC26 was 2320 nM.

With `Cn1c(=O)[nH]c(=O)c2c1nc(NN)n2CCOc1ccccc1`, the AC26 is 2570 nM.

`c1ccc(C2=Nn3c(nnc3-c3n[nH]c4c3CCC4)SC2)cc1`: the AC26 was 4020 nM.

Consider `CCOC(=O)c1c(C)c(C(=O)Nc2cc(F)ccc2F)c(C)n1C`, for which the AC26 was 12600 nM.

As to `Cc1cc(C)n(-c2nnc3n2N=C(c2c[nH]c4ccccc24)CS3)n1`, the AC26 is 3510 nM.

Turning to `Cc1c(C(=O)C(=O)N2c3ccc(F)cc3CCC2C)c2ccccc2n1C` (configuration not stated), the AC26 is 5780 nM.
